{"source": "paper PMC10017518", "about": "“Structural basis for bacterial energy extraction from atmospheric hydrogen” (Nature, 2023)", "molecules": {"B1": {"name": "HucM (MSMEG_2261), scaffold subunit of the Mycobacterium smegmatis hydrogenase Huc (natural protein, Mycobacterium smegmatis mc2155, UniProt A0QUM5 1-189, looked up)", "chain": "MASNGHSAGQNAIDELPDISPVDGIRRRLDDPQVAEALNSLLDHADLLAVLVKGLDGFVRRGDDIANNLTSAIGELKALNAADTPIPALAALKDVDLAGLANSLATLSGGLVKATPALNAVLDSLTDQRGAEVLSALGDALVAARTSAPPAPRGVRGMWKTLRAAAKDPDVGRGVSYLIEVARVFGSKV", "notes": "HucM, uncharacterized protein MSMEG_2261 encoded directly upstream of hucS in the huc operon, Mycobacterium smegmatis mc2155; approximately 18 kDa; 188 amino acids printed (residues 80 to 189 are also printed); only residues 20-79 modelled in the cryo-EM map; source: M. smegmatis mc2155 PRC1 HucS-2×StrII, endogenous; in cell lysate and co-purified with HucS (StrepTrap, Superose 6)"}}, "key": {"[1]": {"target": "T1, Huc (Mycolicibacterium smegmatis, UniProt A0QUM6+A0QUM7)", "T1 construct": "gene hybA; native host purification, chromosomal N-terminal 2×StrepII tag on HucS, tag kept; 833 kDa oligomer of four HucS2L2 lobes on a HucM tetramer; HucL ~58, HucS ~39, HucM ~18 kDa; with Group 2a [NiFe] hydrogenase large subunit HucL; Huc scaffold and stalk protein HucM", "T1 sequence (A0QUM6 2-323)": "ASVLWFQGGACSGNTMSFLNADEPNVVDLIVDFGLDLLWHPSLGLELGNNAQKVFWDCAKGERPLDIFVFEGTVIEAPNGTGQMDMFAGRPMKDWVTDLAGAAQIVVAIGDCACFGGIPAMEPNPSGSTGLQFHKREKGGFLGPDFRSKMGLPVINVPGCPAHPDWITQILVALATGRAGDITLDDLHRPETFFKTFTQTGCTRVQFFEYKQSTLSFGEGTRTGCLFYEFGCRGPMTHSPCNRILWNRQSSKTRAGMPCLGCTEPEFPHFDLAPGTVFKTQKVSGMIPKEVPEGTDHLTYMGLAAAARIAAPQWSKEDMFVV", "T1 sequence (A0QUM7 2-516)": "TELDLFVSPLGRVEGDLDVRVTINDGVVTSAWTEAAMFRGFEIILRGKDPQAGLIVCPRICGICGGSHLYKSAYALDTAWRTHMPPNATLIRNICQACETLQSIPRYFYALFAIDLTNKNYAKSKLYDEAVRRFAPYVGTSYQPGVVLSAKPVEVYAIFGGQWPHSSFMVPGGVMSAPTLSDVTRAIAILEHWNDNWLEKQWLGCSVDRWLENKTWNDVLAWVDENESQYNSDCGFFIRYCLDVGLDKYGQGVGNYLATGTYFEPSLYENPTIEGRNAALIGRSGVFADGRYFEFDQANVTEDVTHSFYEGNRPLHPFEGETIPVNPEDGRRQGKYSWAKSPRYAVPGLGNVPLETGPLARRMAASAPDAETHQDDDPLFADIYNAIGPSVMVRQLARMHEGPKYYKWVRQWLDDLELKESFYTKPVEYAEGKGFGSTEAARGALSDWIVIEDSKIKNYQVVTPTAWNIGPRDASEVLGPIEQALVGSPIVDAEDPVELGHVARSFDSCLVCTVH", "T1 sequence (A0QUM5 1-189 partner)": "B1 chain", "assay": "H2 electrode and gas chromatography of H2 consumption", "assay_type": "biochemical", "conditions": "H2 as donor, 50 mM Tris, 150 mM NaCl, pH 8.0"}, "[2]": {"target": "Huc protomer (HucSL heterodimer) (Mycobacterium smegmatis mc2155)", "assay": "cryo-EM structure; single-particle reconstruction of the purified Huc oligomer (2.19 Å overall) and of the individual HucS2L2 lobe (1.52 Å and 1.67 Å)"}, "[3]": {"target": "the molecule itself", "assay": "cryo-EM structure; single-particle reconstruction of the purified Huc oligomer (2.19 Å overall) and of the individual HucS2L2 lobe (1.52 Å and 1.67 Å)"}}}
{"molecule": "COc1cc(-c2ccc(-n3nc(-c4ccccc4)n[n+]3-c3ccc([N+](=O)[O-])cc3)c(OC)c2)ccc1-n1nc(-c2ccccc2)n[n+]1-c1ccc([N+](=O)[O-])cc1", "note": "[nitro blue tetrazolium]", "values": [{"measurement": "H2 electrode and gas chromatography of H2 consumption", "setting": "[1]; 200 µM NBT as electron acceptor", "value": "using nitro blue tetrazolium (NBT) or the quinone analogue menadione as the electron acceptor"}]}
{"molecule": "Huc protomer (HucSL heterodimer) (complex)", "values": [{"measurement": "stoichiometry N", "setting": "[2]", "value": 2}]}
{"molecule": "CC1=CC(=O)c2ccccc2C1=O", "note": "[menadione]", "values": [{"measurement": "H2 electrode and gas chromatography of H2 consumption", "setting": "[1]; 200 µM menadione as electron acceptor", "value": "Huc displayed a much higher maximum velocity with menadione"}]}
{"molecule": "B1", "values": [{"measurement": "stoichiometry N", "setting": "[3]", "value": 4}]}
